These results are taken from patent publication US10047058B2, “Compounds and methods for inhibiting vacuolar ATPase” (University of Southern California, priority 2015, dated 2018).

For orientation: IC50 means the concentration needed to halve the response being measured. A low value points to higher potency.

Assay [1] concerns MB231 breast cancer cells. Conditions: cited from earlier work.
Another assay addresses ATP6V1A (Homo sapiens, UniProt P38606).
The test system of the next assay is mammalian cells. Conditions: cited from earlier work.

ATP6V1A, sequence (P38606 whole entry): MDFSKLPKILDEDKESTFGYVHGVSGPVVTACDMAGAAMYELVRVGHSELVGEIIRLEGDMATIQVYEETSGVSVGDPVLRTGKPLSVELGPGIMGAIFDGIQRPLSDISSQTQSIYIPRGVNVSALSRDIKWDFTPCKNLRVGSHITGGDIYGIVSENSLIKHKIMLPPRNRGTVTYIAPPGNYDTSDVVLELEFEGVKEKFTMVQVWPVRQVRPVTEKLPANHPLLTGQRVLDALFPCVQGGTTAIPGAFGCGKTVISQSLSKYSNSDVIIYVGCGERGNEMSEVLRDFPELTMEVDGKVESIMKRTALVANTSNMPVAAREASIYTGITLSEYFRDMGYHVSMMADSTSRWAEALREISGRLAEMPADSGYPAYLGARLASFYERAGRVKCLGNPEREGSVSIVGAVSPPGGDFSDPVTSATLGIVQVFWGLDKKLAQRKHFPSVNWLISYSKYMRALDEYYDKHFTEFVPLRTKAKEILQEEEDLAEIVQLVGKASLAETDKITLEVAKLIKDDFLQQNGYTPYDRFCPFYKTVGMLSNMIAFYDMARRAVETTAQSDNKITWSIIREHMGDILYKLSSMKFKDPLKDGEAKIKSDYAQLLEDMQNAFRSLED

`CO/C1=C\C(C)=C\[C@@H](C)[C@@H](O)[C@@H](C)C/C(C)=C/C=C/[C@H](OC)[C@@H]([C@@H](C)[C@@H](O)[C@H](C)[C@@]2(O)C[C@@H](O)[C@H](C)[C@@H](C(C)C)O2)OC1=O` [bafilomycin]: in assay [1], the “effect on invasiveness of cancer cells” value was “significantly inhibited”.
On to `O=C(CCl)Nc1ccc2c(Nc3ccccc3)ncnc2c1` [Formula I], for which, at ATP6V1A, the IC50 was around 30 nM. Besides, at ATP6V1A (1 μM, cells pretreated with drug 30 min, then probe for 30 min), the “inhibition of probe QZ1 labeling (screen of electrophilic quinazolines)” value is on record as “showed potent inhibition”.
On to archazolid, for which the “concentration that blocks growth of mammalian cells” value with mammalian cells is recorded as “subnanomolar”.
